Laboratory results from publication PMC9311865, “Covalent Allosteric Inhibitors of Akt Generated Using a Click Fragment Approach” (Chemmedchem, 2022).
Entries after “also recorded” stand apart in the source; their conditions may differ. Like-named read-outs stand apart in the source and are kept apart here.

Columns and labels:
BT-474 cells = experiment: CellTiter-Glo Luminescent Cell Viability Assay, BT-474; assay type: cell-based; conditions: Homo sapiens
KU-19-19 cells = experiment: CellTiter-Glo Luminescent Cell Viability Assay, KU-19-19; assay type: cell-based; conditions: Homo sapiens, bladder cancer cell line, Akt1 E17K/E49K, mean ± SD, n=3
Method: The potential in vitro antiproliferative activity of the synthesised target compounds was investigated against a number of cancer cell lines by the CellTiter‐Glo® Luminescent Cell Viability Assay (from Promega Corporation, USA, catalogue number: G7570). The half‐maximal effective concentrations (EC50) of these compounds were determined against the AN3‐CA, BT‐474, KU‐19‐19, MCF‐7, T‐47D and ZR‐75‐1 cell lines originating from various tissues, i. e., breast, endometrium and bladder (Table S1). […]
The CellTiter-Glo® Luminescent Cell Viability Assay from Promega was used for the cellular assays, performed as explained by Weisner et al.7,8 Information on the cancer cell lines are given in Table S1, the control compounds used in Figure S3 and the results in Table S2.
Table S1. The cell lines used for the cellular assays, including what cancer type they are predominantly found in, and where the cell lines were acquired form.
Cell line Cancer type Acquired from AN3CA Endometrium ATCC (provided by Prof. Jan G. Hengstler at Leibniz-Institut für Arbeitsforschung Dortmund)
KU-19-19 Bladder Deutsche Sammlung von Mikroorganismen und Zellkulturen […]
BT-474 CLS Cell Lines Service (provided by Prof. Jan G. Hengstler at […] Leibniz-Institut für Arbeitsforschung Dortmund)

MCF-7 cells = experiment: CellTiter-Glo Luminescent Cell Viability Assay, MCF-7; assay type: cell-based; conditions: Homo sapiens
Akt3 = Akt3 (Homo sapiens, UniProt Q9Y243); experiment: HTRF KinEASE assay, IC50 against Akt3
Akt3, sequence (Q9Y243 whole entry): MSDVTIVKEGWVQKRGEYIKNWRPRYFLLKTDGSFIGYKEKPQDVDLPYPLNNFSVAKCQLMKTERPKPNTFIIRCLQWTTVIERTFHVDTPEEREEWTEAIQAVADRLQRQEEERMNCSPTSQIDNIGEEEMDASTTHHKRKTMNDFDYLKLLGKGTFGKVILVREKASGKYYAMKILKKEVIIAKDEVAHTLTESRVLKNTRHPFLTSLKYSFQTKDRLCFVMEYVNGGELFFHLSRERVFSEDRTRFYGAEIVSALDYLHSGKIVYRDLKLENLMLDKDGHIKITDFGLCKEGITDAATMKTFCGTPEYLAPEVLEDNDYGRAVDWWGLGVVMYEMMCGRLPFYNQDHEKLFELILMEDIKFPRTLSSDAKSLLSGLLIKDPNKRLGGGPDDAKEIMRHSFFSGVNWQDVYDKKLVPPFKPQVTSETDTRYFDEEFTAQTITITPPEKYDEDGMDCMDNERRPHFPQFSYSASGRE
From the text: (§1) The homogeneous time‐resolved fluorescence (HTRF®) KinEASE™ assay by Cisbio was used to determine the half‐maximal inhibitory concentration (IC50) values of the synthesised compounds against Akt1, Akt2 and Akt3 (Table 1).[26]
(§2) The HTRF® KinEASE™ assay (Cisbio) was used to determine the IC 50 values of the synthesised
(§3) al. (Akt2 and Akt3).1,5 The three wild-type Akt isoforms used were acquired from ProQinase.

ZR-75-1 cells = experiment: CellTiter-Glo Luminescent Cell Viability Assay, ZR-75-1; assay type: cell-based; conditions: Homo sapiens
wild-type Akt1 = biological target: T1, wild-type Akt1 (Homo sapiens, UniProt P31749); experiment: LC-MS identification of covalent binders after co-incubation with Akt1; assay type: binding; conditions: co-incubation with Akt1, Figure S1
T1 construct: made in house
T1 sequence (P31749 whole entry): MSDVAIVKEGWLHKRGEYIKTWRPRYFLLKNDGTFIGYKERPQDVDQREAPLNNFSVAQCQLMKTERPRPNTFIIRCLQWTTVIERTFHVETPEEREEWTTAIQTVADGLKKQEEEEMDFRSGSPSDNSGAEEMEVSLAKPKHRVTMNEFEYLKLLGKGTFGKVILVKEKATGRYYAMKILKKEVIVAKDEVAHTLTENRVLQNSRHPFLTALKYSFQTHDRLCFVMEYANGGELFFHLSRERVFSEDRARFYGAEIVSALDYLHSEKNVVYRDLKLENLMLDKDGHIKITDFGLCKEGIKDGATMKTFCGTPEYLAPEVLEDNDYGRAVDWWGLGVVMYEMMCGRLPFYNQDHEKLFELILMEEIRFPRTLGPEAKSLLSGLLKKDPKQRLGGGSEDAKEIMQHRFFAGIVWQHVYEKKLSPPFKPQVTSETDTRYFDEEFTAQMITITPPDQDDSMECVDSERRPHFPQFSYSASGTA
From the text: 2. Evaluation results … 4
4. Molecular Modelling … 57
indicated covalent binding.

Akt2 = biological target: T2, Akt2 (Homo sapiens, UniProt P31751); experiment: HTRF KinEASE assay, IC50 against Akt2; assay type: biochemical; conditions: wild-type Akt2; mean ± SD, n=3
T2 construct: purchased ProQinase
T2 sequence (P31751 whole entry): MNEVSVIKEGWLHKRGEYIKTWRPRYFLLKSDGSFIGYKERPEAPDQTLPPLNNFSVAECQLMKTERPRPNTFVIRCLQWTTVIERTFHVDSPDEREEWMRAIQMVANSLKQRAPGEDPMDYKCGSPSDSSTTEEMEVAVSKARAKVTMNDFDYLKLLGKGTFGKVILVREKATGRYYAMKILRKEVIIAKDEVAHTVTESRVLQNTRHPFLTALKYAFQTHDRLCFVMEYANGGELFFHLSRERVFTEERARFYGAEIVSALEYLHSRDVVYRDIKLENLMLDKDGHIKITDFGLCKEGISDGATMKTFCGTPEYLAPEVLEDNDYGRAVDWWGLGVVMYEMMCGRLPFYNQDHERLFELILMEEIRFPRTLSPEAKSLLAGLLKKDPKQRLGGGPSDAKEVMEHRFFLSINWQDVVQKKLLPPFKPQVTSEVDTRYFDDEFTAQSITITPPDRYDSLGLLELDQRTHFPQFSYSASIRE
From the text: as §1, §2, §3

T47D cells = experiment: CellTiter-Glo Luminescent Cell Viability Assay, T47D; assay type: cell-based; conditions: Homo sapiens, breast cancer cell line, mean ± SD, n=3
AN3CA cells = experiment: CellTiter-Glo Luminescent Cell Viability Assay, AN3CA; assay type: cell-based; conditions: Homo sapiens, AN3-CA, read-out: EC50 AN3CA
Akt1 [1] = biological target: T3, Akt1 (Homo sapiens, UniProt P31749); experiment: HTRF KinEASE assay, IC50 against Akt1
T3 sequence (P31749 whole entry): as the sequence (P31749 whole entry) above
From the text: as §1, §2, §3

Akt1 [2] = biological target: T3, Akt1; experiment: Kinetic analysis with HTRF KinEASE (time-dependent IC50), kinetic parameters of inactivation; assay type: biochemical; design: purchased ProQinase; conditions: mean ± SD, n=3; for Ki: inhibition constant of inactivation
From the text: The kinetic parameters of inactivation, namely the inhibition constant (K I) and the rate constant of enzyme inactivation (k inact), are therefore preferentially used to describe irreversible inhibitors.[28] K I is defined as the concentration of inhibitor required for half of the maximum potential rate of covalent bond formation, while k inact is defined as the maximum potential rate of covalent bond formation.[29] The ratio of k inact over K I, k inact/K I, accounts for both the potency of the inhibitor (K I) and the maximum potential rate of covalent bond formation (k inact) and thus represents the second‐order rate constant describing the efficiency of covalent complex formation.[29] Using a protocol published by Krippendorff et al., K I and k inact can be directly estimated from time‐dependent IC50 determinations by kinetic analysis with HTRF® KinEASE™.[28]
Using a protocol published by Krippendorff et al., KI, kinact and kinact/KI could be directly
estimated from time-dependent IC50 determinations by kinetic analysis with HTRF® KinEASE™,

[3] = BT-474, breast cancer cell line, mean ± SD, n=3, read-out: EC50 BT‐474
[4] = MCF7, breast cancer cell line, mean ± SD, n=3, read-out: EC50 MCF‐7
[5] = ZR-75-1, breast cancer cell line, mean ± SD, n=3, read-out: EC50 ZR‐75‐1
[6] = endometrium cancer cell line, mean ± SD, n=3
[7] = IC50 Akt1, wild-type Akt1, mean ± SD, n=3
[8] = IC50, Akt1, repeated in Table 2 for comparison, mean ± SD, n=3

Row | SMILES | EC50 (BT-474 cells; [3]) | EC50 (KU-19-19 cells) | EC50 (MCF-7 cells; [4]) | IC50 (Akt3) | EC50 (ZR-75-1 cells; [5]) | covalent binding to Akt1 (mass increase by LC-MS) (wild-type Akt1) | IC50 (Akt2) | EC50 (T47D cells) | EC50 (AN3CA cells; [6]) | IC50 (Akt1 [1]; [7]) | melting point | further results
1 | NC1(C(=O)N[C@@H](CCO)c2ccc(Cl)cc2)CCN(c2ncnc3[nH]ccc23)CC1 [Capivasertib, reference compound] | 1.6 ± 0.45 µM | 3.06 ± 2.33 µM | 2.65 ± 0.555 µM | – | – | – | – | – | – | – | – | –
2 | C=CC(=O)Nc1ccc2[nH]c(=O)n(C3CCN(Cc4ccc(-c5nc6cc[nH]c(=O)c6cc5-c5ccccc5)cc4)CC3)c2c1 [Compound 2, borussertib, reference compound] | – | 7.82 ± 3.27 µM | – | – | – | – | – | – | – | – | – | EC50 (BT-474 cells; BT-474, read-out: EC50 BT‐474): 0.373 ± 0.054 µM; EC50 (MCF-7 cells; MCF7, read-out: EC50 MCF‐7): 0.277 ± 0.09 µM
3 | C=CC(=O)Nc1ccccc1-c1cn(C2CCN(Cc3ccc(-c4nc5ccccn5c4-c4ccccc4)cc3)CC2)nn1 [Compound 4, N ‐[2‐(1‐{1‐[4‐(3‐Phenylimidazo[1,2‐a]pyridin‐2‐yl)benzyl]piperidin‐4‐yl}‐1H‐1,2,3‐triazol‐4‐yl)phenyl]acrylamide] | 15.4 ± 6.13 µM | 29.4 ± 9.59 µM | 8.55 ± 1.25 µM | > 20 µM | 1.75 ± 0.428 µM | partial covalent binders; also recorded: partial labelling | > 20 µM | 15.2 ± 3.25 µM | 12.3 ± 3.48 µM | 0.925 ± 0.277 µM | – | –
4 | C=CC(=O)Nc1ccc(-c2cn(C3CCN(Cc4ccc(-c5nc6ccccn6c5-c5ccccc5)cc4)CC3)nn2)cc1 [Compound 5, N ‐[4‐(1‐{1‐[4‐(3‐Phenylimidazo[1,2‐a]pyridin‐2‐yl)benzyl]piperidin‐4‐yl}‐1H‐1,2,3‐triazol‐4‐yl)phenyl]acrylamide] | 6.99 ± 2.37 µM | 9.83 ± 1.6 µM | 3.39 ± 0.348 µM | > 20 µM | 3.54 ± 0.44 µM | no indication of covalent binding | > 20 µM | 3.79 ± 1.94 µM | 5.44 ± 1.56 µM | 2.88 ± 1.73 µM | – | –
5 | C=CC(=O)Nc1ccccc1-c1cn(C2CCN(Cc3ccc(-c4nc5ccccn5c4-c4ccccc4C)cc3)CC2)nn1 [Compound 6, N ‐{2‐[1‐(1‐{4‐[3‐(o‐Tolyl)imidazo[1,2‐a]pyridin‐2‐yl]benzyl}piperidin‐4‐yl)‐1H‐1,2,3‐triazol‐4‐yl]phenyl}acrylamide] | > 30 µM | 22 ± 4.98 µM | 18.2 ± 2.56 µM | > 20 µM | 15.5 ± 1.86 µM | – | > 20 µM | > 30 µM | 14.7 ± 2.35 µM | > 20 µM | 128 to 130 °C | –
6 | C=CC(=O)Nc1cccc(-c2cn(C3CCN(Cc4ccc(-c5nc6ccccn6c5-c5ccccc5C)cc4)CC3)nn2)c1 [Compound 7, N ‐{3‐[1‐(1‐{4‐[3‐(o‐Tolyl)imidazo[1,2‐a]pyridin‐2‐yl]benzyl}piperidin‐4‐yl)‐1H‐1,2,3‐triazol‐4‐yl]phenyl}acrylamide] | 9.91 ± 4.14 µM | 7.69 ± 0.664 µM | 4.38 ± 1.59 µM | > 20 µM | 4.19 ± 1.11 µM | – | > 20 µM | 4.86 ± 0.627 µM | 5.71 ± 0.706 µM | > 20 µM | 124 to 126 °C | –
7 | C=CC(=O)Nc1ccc(-c2cn(C3CCN(Cc4ccc(-c5nc6ccccn6c5-c5ccccc5C)cc4)CC3)nn2)cc1 [Compound 8, N ‐{4‐[1‐(1‐{4‐[3‐(o‐Tolyl)imidazo[1,2‐a]pyridin‐2‐yl]benzyl}piperidin‐4‐yl)‐1H‐1,2,3‐triazol‐4‐yl]phenyl}acrylamide] | 7.39 ± 2.34 µM | 7.63 ± 0.636 µM | 4.3 ± 1.18 µM | > 20 µM | 5.32 ± 0.426 µM | – | > 20 µM | 4.52 ± 1.59 µM | 5.87 ± 0.403 µM | > 20 µM | 169 to 170 °C | –
8 | C=CC(=O)Nc1cccc(-c2cn(C3CCN(Cc4ccc(-c5nc6ccccn6c5-c5cccc(C)c5)cc4)CC3)nn2)c1 [Compound 9, N ‐{3‐[1‐(1‐{4‐[3‐(m‐Tolyl)imidazo[1,2‐a]pyridin‐2‐yl]benzyl}piperidin‐4‐yl)‐1H‐1,2,3‐triazol‐4‐yl]phenyl}acrylamide] | 11.2 ± 4.73 µM | 9.45 ± 1.04 µM | 3.61 ± 0.804 µM | > 20 µM | 4.2 ± 0.817 µM | – | > 20 µM | 4.59 ± 1.31 µM | 5.13 ± 1.28 µM | > 20 µM | 130 to 132 °C | IC50 Akt1 (Akt1 [1]; wild-type Akt1, mean ± SD, n=3): inactive
9 | C=CC(=O)Nc1cccc(-c2cn(C3CCN(Cc4ccc(-c5nc6ccc(C)cn6c5-c5ccccc5)cc4)CC3)nn2)c1 [Compound 10, N ‐[3‐(1‐{1‐[4‐(6‐Methyl‐3‐phenylimidazo[1,2‐a]pyridin‐2‐yl)benzyl]piperidin‐4‐yl}‐1H‐1,2,3‐triazol‐4‐yl)phenyl]acrylamide] | 22.8 ± 3 µM | 17.3 ± 7.97 µM | 6.73 ± 3.48 µM | > 20 µM | 3.32 ± 3.11 µM | partial covalent binders | > 20 µM | 9.18 ± 4.72 µM | 5.61 ± 2.85 µM | 4.63 ± 0.244 µM | 217 to 219 °C | –
10 | C=CC(=O)Nc1ccc2[nH]c(=O)n(C3CCN(Cc4ccc(-c5nc6ccccn6c5-c5ccccc5)cc4)CC3)c2c1 [Compound 11, N ‐(2‐Oxo‐3‐{1‐[4‐(3‐phenylimidazo[1,2‐a]pyridin‐2‐yl)benzyl]piperidin‐4‐yl}‐2,3‐dihydro‐1H‐benzo[d]imidazol‐5‐yl)acrylamide] | 0.971 ± 0.301 µM | 12.8 ± 1.61 µM | 1.1 ± 0.689 µM | > 20 µM | 0.081 ± 0.011 µM | covalent binders | 2.56 ± 0.578 µM | 0.364 ± 0.087 µM | 1.03 ± 0.21 µM | 0.034 ± 0.02 µM | 221 to 223 °C | Ki (Akt1 [2]): 0.0272 ± 0.0026 µM; k inact (Akt1 [2]): 0.069 ± 0.004 min⁻¹; k inact/K I (Akt1 [2]): 43000 ± 6000 M⁻¹ s⁻¹; IC50 (Akt1 [1]; [8]): 0.0341 ± 0.0204 µM
11 | C=CC(=O)Nc1cc2c(cc1Cl)[nH]c(=O)n2C1CCN(Cc2ccc(-c3nc4ccccn4c3-c3ccccc3)cc2)CC1 [Compound 12, N ‐(6‐Chloro‐2‐oxo‐3‐{1‐[4‐(3‐phenylimidazo[1,2‐a]pyridin‐2‐yl)benzyl]piperidin‐4‐yl}‐2,3‐dihydro‐1H‐benzo[d]imidazol‐5‐yl)acrylamide] | 3.76 ± 1.38 µM | 23.5 ± 6.7 µM | 4.23 ± 2.4 µM | > 20 µM | 0.227 ± 0.057 µM | covalent binders | 5.59 ± 1.52 µM | 1.5 ± 0.903 µM | 3.57 ± 1.22 µM | 0.029 ± 0.005 µM | 80 to 82 °C | Ki (Akt1 [2]): 0.0247 ± 0.0018 µM; k inact (Akt1 [2]): 0.081 ± 0.008 min⁻¹; k inact/K I (Akt1 [2]): 55000 ± 9000 M⁻¹ s⁻¹; IC50 (Akt1 [1]; [8]): 0.0286 ± 0.0053 µM
12 | C=CC(=O)Nc1cccc(-c2cn(C3CCN(Cc4ccc(-c5nc6cc[nH]c(=O)c6cc5-c5ccccc5)cc4)CC3)nn2)c1 [Compound 13, N ‐[3‐(1‐{1‐[4‐(5‐Oxo‐3‐phenyl‐5,6‐dihydro‐1,6‐naphthyridin‐2‐yl)benzyl]piperidin‐4‐yl}‐1H‐1,2,3‐triazol‐4‐yl)phenyl]acrylamide] | 0.469 ± 0.162 µM | 5.65 ± 1.49 µM | 0.329 ± 0.225 µM | – | 0.02 ± 0.007 µM | covalent binders | – | 0.088 ± 0.031 µM | 0.425 ± 0.058 µM | 0.007 ± 0.0018 µM | 252 to 254 °C | Ki (Akt1 [2]): 0.0105 ± 0.0008 µM; k inact (Akt1 [2]): 0.042 ± 0.012 min⁻¹; k inact/K I (Akt1 [2]): 66000 ± 15000 M⁻¹ s⁻¹; IC50 (Akt1 [1]; [8]): 0.007 ± 0.0018 µM; decrease in activity against Akt1 compared to control compound 2 (Akt1 [1]; IC50 ratio to borussertib (2)): less than 10 fold
13 | CC(C)NC[C@@H](C(=O)N1CCN(c2ncnc3c2[C@H](C)C[C@H]3O)CC1)c1ccc(Cl)cc1 [Ipatasertib, reference compound] | – | 4.23 ± 3.39 µM | – | – | – | – | – | 0.447 ± 0.002 µM | – | – | – | EC50 (ZR-75-1 cells; ZR-75-1, read-out: EC50 ZR‐75‐1): 0.219 ± 0.083 µM; EC50 (BT-474 cells; BT-474, read-out: EC50 BT‐474): 2.37 ± 0.745 µM; EC50 (MCF-7 cells; MCF7, read-out: EC50 MCF‐7): 5.04 ± 1.83 µM; EC50 (AN3CA cells): 0.925 ± 0.457 µM
14 | NC1(c2ccc(-c3nc4ccn5c(=O)[nH]nc5c4cc3-c3ccccc3)cc2)CCC1 [MK‐2206, reference compound] | 1.68 ± 0.316 µM | 5.53 ± 0.927 µM | – | – | 0.063 ± 0.021 µM | – | – | – | – | – | – | –
